Test results as given in patent publication US9469556B2, “Ballast water treatment system” (University of Strathclyde, priority 2009, dated 2016).

Test system: organisms in sea water
Experiment: ATP luminescence assay of sea samples treated with biocide dyes
Type: cell-based
Conditions: for biocidal properties in sea water (total ATP levels): Millport sea samples, different concentrations
Procedure: Required quantities of each biocide dye were added to the tubes containing the sea sample by means of sterile pipettes in order to give the desired concentrations.
50 mL of each seawater sample was centrifuged at 4,000 rpm for 30 minutes at room temperature. The supernatant was discarded, and the pellets (which may not be visible) were resuspended in 1 mL of ATP Buffer Mix by brisk mixing with a sterile pastette. 0.1 mL of detergent solution was added to each sample. Sample tubes were then placed in a water bath at 90° C. for exactly 5 minutes to lyse seawater organisms. Alternatively the seawater organisms (from 50 mL water) are captured on a 0.22 μm filter membrane and treated with the ATP Buffer Mix, as above.
As a negative control, sterilised seawater (filtered through 0.22 μm filter and/or autoclaved) was used. Where coloured agents were added to the samples, these were also added to the negative control at the same concentration.
One aliquot (0.1 mL) of ATP Assay Mix solution was thawed and added to a sterile transparent 5 mL luminometer tube. This was swirled and allowed to stand at room temperature to allow hydrolysis of endogenous ATP and decrease background.
Immediately after 5 minutes of being at 90° C., 0.1 mL of resuspended seawater sample was added to the reaction tube, swirled briskly for 5 seconds, and immediately measured using a tube luminometer using a 4 second read time.

| Structure (SMILES) | biocidal properties in sea water (total ATP levels) (with and without incubation (FIG. 3.2)) | viability of organisms in sea water (as measured by ATP presence) (dyes used separately (FIG. 4.1)) | biocidal properties in sea water (total ATP levels) (overnight incubation, with and without light (60 w for 5 minutes) (FIG. 3.3)) |
| --- | --- | --- | --- |
| CN(C)c1ccc(C(=C2C=CC(=[N+](C)C)C=C2)c2ccc(N(C)C)cc2)cc1 [Gentian Violet] | effective biocidal properties | incomplete reduction in viability |  |
| O=C1OC2(c3ccccc31)c1cc(I)c(O)c(I)c1Oc1c2cc(I)c(O)c1I [erythrosine] |  |  | effective biocidal properties |
